Common to all, as to assay: growth of human tumour cells (NCI), 48 h
Assay [1] has as its system CCRF-CEM leukemia.
Assay [2] relates to HCC-2998 colon.
Assay [3] relates to MALME-3M melanoma.
The subject of assay [4] is NCI-H226 lung.
Assay [5] relates to OVCAR-4 ovarian.
The test system of assay [6] is OVCAR-5 ovarian.
Assay [7] relates to SF-539 CNS.
For assay [8], the system named is UACC-62 melanoma.
The subject of assay [9] is UO-31 renal.
In assay [10] the test system is LOX IMVI melanoma.

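Protocol summary: plate cells (96-well), add compound at 5 concentrations, incubate 48 h, interpolate endpoints linearly. The concentration for 50% growth inhibition is given as GI50. TGI denotes the concentration required for complete inhibition of growth.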 Some results are limits rather than exact numbers.

For `CCCC(S(=O)(=O)c1ccccc1)S(=O)(=O)c1ccccc1`, the TGI in [1], in assay [2], in assay [3], in assay [4], in assay [5] and in [6] was greater than 100 µM each time. Besides, the TGI in assay [7], in assay [8] and in assay [9] was greater than 100 µM throughout.

As to `C[CH2][Hg][S]c1ccccc1C(=O)O`, the GI50 was 0.291 µM in assay [1]; 1.67 µM in assay [2]; 0.488 µM in assay [10]; 0.801 µM in assay [3]; 2.01 µM in [5]; 1.77 µM in assay [6]. For the same compound, the GI50 in assay [7] was 1.7 µM; in assay [8] it was 1.36 µM; in assay [9], 1.43 µM. In addition, the TGI in assay [1] came to 2.74 µM; in [2] it was 3.08 µM; in assay [10], 2.16 µM; in assay [3], 2.25 µM; in [5], 7 µM; in [6], 3.26 µM. The TGI in [7] was 3.32 µM; in assay [8], 2.98 µM; in assay [9] it was 2.79 µM.

`ClC1=C(Cl)C(Cl)(Cl)c2c3c(c4c(c21)C(Cl)(Cl)C(Cl)=C4Cl)C(Cl)(Cl)C(Cl)=C3Cl`: the TGI in assay [1], in assay [2], in assay [10], in assay [3], in [4] and in assay [7] was greater than 100 µM in each case.

Regarding `O=C(O)c1ccccc1NC(=S)c1ccccc1`, the TGI is greater than 100 µM in [1]; 0.0159 µM in assay [2]; greater than 100 µM in assay [10]; 65.9 µM in assay [3]; 29 µM in assay [5]; greater than 100 µM in assay [6]. For the same compound, the TGI in [7], in assay [8] and in assay [9] was greater than 100 µM in each case.

For `COc1cc2ncc3c(nc4sccn43)c2cc1OC`, the GI50 is 46.4 µM in assay [1]; 15.6 µM in [10]; 5.86 µM in assay [3]; 32 µM in assay [5]; 26.8 µM in assay [6]; 15.6 µM in assay [7]. Besides, the figures for the GI50 in assay [8] and in assay [9] were 22.9 µM and 33.6 µM, respectively. The TGI in assay [1] is greater than 100 µM; in assay [10] it was greater than 100 µM; in assay [3] it was 32.6 µM; in assay [5], 70.4 µM; in assay [6], 60.5 µM; in assay [7] it was 55.2 µM. Also, the TGI in [8] and in assay [9] was greater than 100 µM each time.

Regarding `Fc1cccc(F)c1C(Nc1nncs1)Nc1nncs1`, the TGI in assay [2], in [3], in assay [4], in assay [5], in [6] and in [7] was greater than 100 µM throughout. Also, the TGI in assay [8] and in [9] was greater than 100 µM each time.

Turning to `COc1cc(/C=C/c2ccc3c(Br)cc(Br)c(O)c3n2)ccc1O`, the GI50 in assay [1] was 0.359 µM; in assay [10], 0.977 µM; in [3], 4.81 µM; in [4] it was 4.61 µM; in [5], 2.18 µM; in [6], 1.49 µM. Moreover, the GI50 in assay [7] is 2.29 µM; in assay [8] it was 1.67 µM; in assay [9] it was 1.28 µM. In addition, the TGI in assay [1] was 3.03 µM; in assay [10] it was 11.4 µM; in assay [3], 18.4 µM; in assay [4] it was 17.4 µM; in assay [5] it was 11.6 µM; in [6] it was 5.84 µM. The TGI in assay [7] was found to be 10.3 µM; in assay [8], 5.3 µM; in assay [9], 12.4 µM.

With `COc1ccc(C(=O)/C=C/c2ccc(OCC#N)cc2)cc1`, the TGI was 81 µM in assay [1]; 31.8 µM in assay [2]; 43.7 µM in assay [3]; 88.8 µM in assay [4]; greater than 100 µM in assay [5]; greater than 100 µM in [6]. Moreover, the results for the TGI in assay [7], in assay [8] and in [9] were 45.4 µM, greater than 10 µM and 30.6 µM, respectively.

As to `Cc1[nH]nc(-c2ccon2)c1N=O`, the TGI in assay [3] came to 38.2 µM; in assay [4], 28.6 µM; in assay [5] it was 37.6 µM; in assay [6] it was 35.1 µM; in assay [7], 32.7 µM; in assay [8], 34.7 µM. The same compound returned a TGI in assay [9] of 46.6 µM.

Regarding `CC1=C(C(=O)Nc2ccc(Cl)c(Cl)c2)C(c2ccc([N+](=O)[O-])cc2)C(C(=O)Nc2ccc(Cl)c(Cl)c2)=C(C)N1`, the TGI was determined as 4.98 µM in [2]; 4.02 µM in assay [10]; 7.06 µM in [3]; 11.6 µM in [4]; 11.8 µM in [5]; 10 µM in [6]. Further, the TGI in assay [7] worked out at 12.1 µM; in [8] it was 4.46 µM; in assay [9] it was 10.6 µM.

As for `O=C1OC(=O)c2c1c(-c1ccccc1)nc1ccccc21`, the TGI in [1], in [2], in assay [10], in [3], in assay [4] and in assay [7] was greater than 100 µM each time. For the same compound, the TGI in assay [8] and in [9] was greater than 100 µM each time.

Take `c1ccc2c(c1)CCc1c-2n[nH]c1-c1[nH]nc2c1CCc1ccccc1-2`: the TGI in [1], in assay [2], in assay [10], in assay [3], in [4] and in assay [6] was greater than 100 µM in each case. Also, the TGI in assay [7], in assay [8] and in [9] was greater than 100 µM throughout.

Turning to `C[C@@H]1O[C@@H](O[C@@H]2[C@@H](O)[C@H](OCCc3ccc(O)c(O)c3)O[C@H](CO)[C@H]2OC(=O)/C=C/c2ccc(O)c(O)c2)[C@H](O)[C@H](OC2OC[C@](O)(CO)[C@H]2O)[C@H]1O` (stereo not given in full), the GI50 was 19.4 µM in assay [10]; greater than 100 µM in assay [4]; greater than 100 µM in assay [5]; greater than 100 µM in [6]; greater than 100 µM in [7]; greater than 100 µM in [8]. Besides, the GI50 in assay [9] was greater than 100 µM. In addition, the TGI in assay [10] was 37 µM; in [4], greater than 100 µM; in [5] it was greater than 100 µM; in [6], greater than 100 µM; in assay [7], greater than 100 µM; in assay [8], greater than 100 µM. In [9], this compound gave a TGI greater than 100 µM.

Consider `O=C1c2ccccc2N2OC3(N4CCCC4)CCCCC3C12c1ccccc1` (stereo not given), for which the TGI is 47.5 µM in assay [1]; greater than 100 µM in assay [2]; 38.7 µM in assay [3]; greater than 100 µM in assay [4]; 28.1 µM in assay [5]; 80.5 µM in [7]. The TGI in assay [8] was 40.1 µM; in [9] it was greater than 100 µM.

With `COc1ccc(-c2[nH]c3ccccc3c2CCNS(=O)(=O)c2ccc(C)cc2)cc1`, the TGI in [1], in [2], in assay [10], in assay [3], in assay [4] and in assay [6] was greater than 10 µM in each case. In addition, the TGI in assay [7], in [8] and in assay [9] was greater than 10 µM in each case.

Take `CN=C1OC2(c3ccccc3)C3=C(OC(=NC)N2C)C(=O)OC3(c2ccccc2)N1C` (stereo not given): the TGI in assay [1], in assay [2], in assay [4], in assay [5], in assay [6] and in assay [7] was greater than 100 µM in each case. Besides, the TGI in assay [8] was greater than 100 µM.

Take `O=C(/C=C/c1ccc(Cl)c(Cl)c1)c1cccc2ccccc12`: the TGI in assay [1] stood at 7.18 µM; in assay [2], 22.4 µM; in [3], 32.4 µM; in assay [4], 28.3 µM; in assay [5], 20.7 µM; in assay [6], 26.9 µM. The TGI is 7.14 µM in assay [7], 25.5 µM in [8] and 33.8 µM in [9].

Take `Fc1ccc(/C=N/n2c(-c3ccc(F)c(Cl)c3)n[nH]c2=S)cc1`: the GI50 in assay [1] is 32.2 µM; in assay [2], 34.8 µM; in assay [3] it was 18.3 µM; in assay [4], 36.5 µM; in assay [5] it was 19.9 µM; in [6], 21.8 µM. The GI50 in assay [7] is 32 µM; in [8], 22.8 µM; in assay [9] it was 18.9 µM. Also, the TGI is 96.6 µM in [1]; greater than 100 µM in assay [2]; 60.2 µM in assay [3]; 83.8 µM in assay [4]; 39.9 µM in [5]; 48.3 µM in assay [6]. In addition, the TGI in assay [7] is greater than 100 µM; in [8], 49 µM; in [9], 41.5 µM.

`Cc1ccncc1C(N)=O`: the GI50 in assay [1], in assay [2], in assay [10], in assay [3], in assay [4] and in [6] was greater than 100 µM throughout. Further, the GI50 in [7], in assay [8] and in assay [9] was greater than 100 µM each time. Also, the TGI in [1], in assay [2], in [10], in [3], in assay [4] and in assay [6] was greater than 100 µM in each case. Further, the TGI in assay [7], in assay [8] and in assay [9] was greater than 100 µM throughout.

`CC(CO)(Nc1ccc([N+](=O)[O-])cc1[N+](=O)[O-])C(=O)O` (stereo not given): the TGI in assay [2] was 43.6 µM; in assay [10] it was 48.2 µM; in assay [3], 36.1 µM; in assay [4], greater than 100 µM; in assay [6], 89 µM; in assay [7], 91.1 µM. The TGI is greater than 100 µM in [8] and 37.4 µM in [9].

For the compound `NNc1nnc(-c2nnc(NN)o2)o1`, the TGI in assay [1], in [2], in [3], in [4], in [5] and in [6] was greater than 10 µM throughout. Moreover, the TGI in assay [7], in [8] and in assay [9] was greater than 10 µM each time.

On to `Cc1cc2c(c(C(N)=O)c1C)-c1cc(Cl)cc(Cl)c1C2=O`, for which the TGI in [1], in [2], in assay [10], in assay [3], in [5] and in assay [6] was greater than 100 µM each time. In addition, the TGI in [7], in assay [8] and in assay [9] was greater than 100 µM throughout.

As for `O=C(c1ccccc1)c1c(CC(O)c2ccncc2)n(C(=O)c2ccccc2)c2ccccc12` (stereo not given), the TGI is 61.9 µM in [1]; 31.5 µM in [2]; 34 µM in assay [3]; 30.8 µM in [4]; 39.7 µM in assay [5]; 34.5 µM in assay [6]. In addition, the results for the TGI in assay [7], in [8] and in [9] were 32.1 µM, 31.5 µM and 31.7 µM, respectively.

Consider `COc1ccc(NC(=O)C(=O)/C=C(\O)c2ccccc2)cc1`, for which the TGI in assay [1] was 8.76 µM; in assay [2] it was greater than 10 µM; in assay [10], 5.27 µM; in [3], greater than 10 µM; in assay [5], greater than 10 µM; in assay [8], greater than 10 µM.

Regarding `C/C(=N\O)c1cccc(Nc2cc(-n3ccnc3)c3ccccc3n2)c1`, the GI50 in assay [1] is 24.9 µM; in [2] it was 17.3 µM; in assay [3] it was 11.1 µM; in assay [4] it was 3.59 µM; in assay [6], 20.9 µM; in assay [7], 17.2 µM. Moreover, the GI50 in assay [8] is 6.63 µM; in assay [9] it was 13.8 µM. The TGI in assay [1] was determined as 64.5 µM; in [2] it was 31.7 µM; in assay [3], 25.3 µM; in assay [4] it was 20.9 µM; in [6], 40.9 µM; in assay [7] it was 33.5 µM. Also, the figures for the TGI in [8] and in assay [9] were 19.5 µM and 34.6 µM, respectively.

In the case of `O=C(O)c1cc(CCc2cc(O)ccc2O)ccc1O`, the TGI in [1] was 71.4 µM; in assay [10], greater than 100 µM; in assay [3] it was greater than 100 µM; in [4], greater than 100 µM; in assay [5], greater than 100 µM; in assay [6], greater than 100 µM. Also, the TGI in assay [7], in [8] and in assay [9] was greater than 100 µM each time.

(Values after PubChem BioAssay (NCI).)
